PubChem BioAssay (NCI)
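Assay format: 96-well plates, 48-hour exposure. GI50 is the concentration that inhibits growth by half. TGI: total growth inhibition.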

What was measured:
Assay in all cases: NCI anticancer screen, dose series, 48 h
A498 renal = system: A498 renal
ACHN renal = system: ACHN renal
BT-549 breast = system: BT-549 breast
CAKI-1 renal = system: CAKI-1 renal
CCRF-CEM leukemia = system: CCRF-CEM leukemia
COLO 205 colon = system: COLO 205 colon
DU-145 prostate = system: DU-145 prostate
EKVX NSCLC = system: EKVX NSCLC
HCC-2998 colon = system: HCC-2998 colon
HCT-15 colon = system: HCT-15 colon
HL-60(TB) leukemia = system: HL-60(TB) leukemia
HOP-92 NSCLC = system: HOP-92 NSCLC
HS 578T breast = system: HS 578T breast
HT29 colon = system: HT29 colon
K-562 leukemia = system: K-562 leukemia
MDA-MB-435 = system: MDA-MB-435
MOLT-4 leukemia = system: MOLT-4 leukemia
NCI-H460 lung = system: NCI-H460 lung
NCI/ADR-RES ovarian = system: NCI/ADR-RES ovarian
OVCAR-4 ovarian = system: OVCAR-4 ovarian
OVCAR-5 ovarian = system: OVCAR-5 ovarian
RPMI-8226 leukemia = system: RPMI-8226 leukemia
SF-268 CNS = system: SF-268 CNS
SK-MEL-28 melanoma = system: SK-MEL-28 melanoma
SK-MEL-5 melanoma = system: SK-MEL-5 melanoma
SN12C renal = system: SN12C renal
SNB-75 CNS = system: SNB-75 CNS
SR leukemia = system: SR leukemia
SW-620 colon = system: SW-620 colon
T-47D breast = system: T-47D breast
TK-10 renal = system: TK-10 renal
UACC-62 melanoma = system: UACC-62 melanoma
UO-31 renal = system: UO-31 renal

[Cl][Ru].c1ccc(-c2cc(-c3ccccn3)nc(-c3ccccn3)c2)cc1.c1ccc(-c2ccnc3c2ccc2c(-c4ccccc4)ccnc23)cc1
GI50 (A498 renal): 1930 nM | TGI (A498 renal): 4560 nM | GI50 (ACHN renal): 3230 nM | TGI (ACHN renal): 25700 nM | GI50 (BT-549 breast): 224 nM | TGI (BT-549 breast): 869 nM | GI50 (CAKI-1 renal): 3150 nM | TGI (CAKI-1 renal): 26600 nM | GI50 (CCRF-CEM leukemia): 415 nM | GI50 (COLO 205 colon): 182 nM | TGI (COLO 205 colon): 335 nM | GI50 (DU-145 prostate): 529 nM | GI50 (EKVX NSCLC): 352 nM | TGI (EKVX NSCLC): 2360 nM | GI50 (HCC-2998 colon): 356 nM | TGI (HCC-2998 colon): 1450 nM | GI50 (HCT-15 colon): 2080 nM | TGI (HCT-15 colon): 4730 nM | GI50 (HL-60(TB) leukemia): 252 nM | TGI (HL-60(TB) leukemia): 696 nM | GI50 (HOP-92 NSCLC): 139 nM | TGI (HOP-92 NSCLC): 543 nM | GI50 (HS 578T breast): 275 nM | TGI (HS 578T breast): 919 nM | GI50 (HT29 colon): 333 nM | TGI (HT29 colon): 1310 nM | GI50 (K-562 leukemia): 301 nM | TGI (K-562 leukemia): 4660 nM | GI50 (MDA-MB-435): 322 nM | TGI (MDA-MB-435): 1010 nM | GI50 (MOLT-4 leukemia): 332 nM | TGI (MOLT-4 leukemia): 1620 nM | GI50 (NCI-H460 lung): 351 nM | TGI (NCI-H460 lung): 1120 nM | GI50 (NCI/ADR-RES ovarian): 31100 nM | TGI (NCI/ADR-RES ovarian): > 100000 nM | GI50 (OVCAR-4 ovarian): 424 nM | TGI (OVCAR-4 ovarian): 2500 nM | GI50 (OVCAR-5 ovarian): 396 nM | TGI (OVCAR-5 ovarian): 1710 nM | GI50 (RPMI-8226 leukemia): 232 nM | TGI (RPMI-8226 leukemia): 727 nM | GI50 (SF-268 CNS): 489 nM | GI50 (SK-MEL-28 melanoma): 418 nM | TGI (SK-MEL-28 melanoma): 1580 nM | GI50 (SK-MEL-5 melanoma): 577 nM | TGI (SK-MEL-5 melanoma): 1840 nM | GI50 (SN12C renal): 266 nM | TGI (SN12C renal): 915 nM | GI50 (SNB-75 CNS): 179 nM | TGI (SNB-75 CNS): 829 nM | TGI (SR leukemia): 1090 nM | GI50 (SW-620 colon): 451 nM | TGI (SW-620 colon): 1670 nM | GI50 (T-47D breast): 270 nM | TGI (T-47D breast): 1070 nM | GI50 (TK-10 renal): 1600 nM | TGI (TK-10 renal): 4150 nM | GI50 (UACC-62 melanoma): 292 nM | TGI (UACC-62 melanoma): 1170 nM | GI50 (UO-31 renal): 2620 nM | TGI (UO-31 renal): > 45800 nM
